Measured values from patent publication US11945822B2, “Pyrazolo-triazine and/or pyrazolo-pxrimidine derivatives as selective inhibitor of cyclin dependent kinase” (QURIENT CO., LTD., priority 2018, dated 2024).

Key:
CDK1/Cyclin B = biological target: T1, CDK1/Cyclin B (Homo sapiens, UniProt P06493); assay: Enzymatic assay for CDK1 (FRET based LANCE Ultra kinase assay); format: biochemical; settings: read-out: CDK1 enzymatic activity (IC50 range)
T1 construct: purchased Invitrogen PR4768C
Description: (§1) Enzymatic Binding Assay Protocol for CDK1, CDK2, CDK5 and CDK7
(§2) Inhibition activity of the respective compound on CDK kinase under Km value of ATP was tested in FRET based The LANCE® Ultra kinase assay (Perkin Elmer), which uses a ULight™-labeled peptide substrate and an appropriate Europium-labeled anti-phospho-antibody. Test compounds were made with DMSO solutions, and then 4-fold serial dilutions for 8 doses were prepared using automated liquid handler (POD810, LABCYTE) and 80 nL/well of diluted compound solutions were added into the 384-well plates (Greiner, Cat #784075). And then 68 nM of ULight-MBP peptide (Perkin Elmer, Cat #TRF0109-M) and 5 ul/well of ATP (Sigma, Cat #A7699) were added to the plate. After 1 min centrifugation at 1000 rpm, Purified CDKs/Cyclin complex were added following concentrations respectively. 24 uM for CDK1/Cyclin B (Invitrogen, Cat #PR4768C), 22 uM for CDK2/Cyclin A (Invitrogen, Cat #PV6290), 10 uM for CDK5/p25 (Invitrogen, Cat #PR8543B) and […] for CDK7/Cyclin H/MNAT1 (Invitrogen, Cat #PR6749B) were added to the each corresponding plate for CDK1, CDK2, CDK5 and CDK7. Incubate at 23° C. for 60 min and then Eu-labeled anti-phospho-Myelin Basic Protein (PE, Cat #TRF0201-M) and EDTA (Invitrogen, Cat #15575038) mixture in Lance Detection Buffer (Perkin Elmer, Cat #CR97100) was added in each well. After additional incubation at 23° C. for 60 min, test articles were measured the fluorescence using Envision leader (Perkin Elmer, USA) [Laser as excitation light; […] as the first and the second emission filter]. Data was analyzed using XL Fit software.

MV4-11 = assay: Cellular MV4-11 viability assay (CellTiter-Glo, 72 hours); format: cell-based; settings: Homo sapiens
Description: (§3) All cell lines were routinely tested for mycoplasma.
(§4) The effect of the CDK7 inhibitor to inhibit the growth of target cancer cells was evaluated through the 72 hours time period of viability assay. Briefly, the candidate cell line ware plated in 96 well plate at the following density of cells respectively. […] DMSO solvent without compound served as a control and final DMSO concentration less than 0.1%. After 72 hours of incubation at 37° C., 5% CO2 incubator, cells were analyzed for the viability using the CellTiter-Glo Luminescent Cell Viability Assay (Promega, Cat #G7570). All viability assays were performed in duplicate and Luminescence was read using an Envision (Perkin Elmer, USA). Data was analyzed using XLfit software.

CDK7/Cyclin H/MNAT1 = biological target: T2, CDK7/Cyclin H/MNAT1 (Homo sapiens, UniProt P50613); assay: Enzymatic assay for CDK7 (FRET based LANCE Ultra kinase assay); format: biochemical; settings: for IC50: read-out: CDK7 enzymatic activity (IC50 range)
T2 construct: purchased Invitrogen PR6749B
T2 sequence (P50613 whole entry): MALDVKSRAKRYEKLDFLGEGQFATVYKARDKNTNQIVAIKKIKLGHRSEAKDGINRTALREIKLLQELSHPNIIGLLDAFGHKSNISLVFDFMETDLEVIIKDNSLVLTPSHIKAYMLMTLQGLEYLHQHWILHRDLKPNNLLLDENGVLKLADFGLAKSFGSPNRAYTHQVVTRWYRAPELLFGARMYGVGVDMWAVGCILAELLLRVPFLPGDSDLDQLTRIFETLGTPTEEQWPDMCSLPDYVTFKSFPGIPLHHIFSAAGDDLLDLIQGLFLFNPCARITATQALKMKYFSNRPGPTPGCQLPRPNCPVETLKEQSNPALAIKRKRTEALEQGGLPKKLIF
T2 sequence (P51946 whole entry partner): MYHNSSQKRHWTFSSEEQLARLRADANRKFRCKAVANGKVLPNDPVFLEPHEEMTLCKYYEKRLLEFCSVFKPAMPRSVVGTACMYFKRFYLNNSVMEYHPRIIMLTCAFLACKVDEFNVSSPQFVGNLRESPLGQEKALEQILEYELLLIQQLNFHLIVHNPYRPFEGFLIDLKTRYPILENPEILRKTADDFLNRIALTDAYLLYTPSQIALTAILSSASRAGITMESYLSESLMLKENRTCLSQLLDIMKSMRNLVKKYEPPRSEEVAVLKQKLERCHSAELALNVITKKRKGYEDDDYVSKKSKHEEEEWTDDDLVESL
T2 sequence (P51948 whole entry partner): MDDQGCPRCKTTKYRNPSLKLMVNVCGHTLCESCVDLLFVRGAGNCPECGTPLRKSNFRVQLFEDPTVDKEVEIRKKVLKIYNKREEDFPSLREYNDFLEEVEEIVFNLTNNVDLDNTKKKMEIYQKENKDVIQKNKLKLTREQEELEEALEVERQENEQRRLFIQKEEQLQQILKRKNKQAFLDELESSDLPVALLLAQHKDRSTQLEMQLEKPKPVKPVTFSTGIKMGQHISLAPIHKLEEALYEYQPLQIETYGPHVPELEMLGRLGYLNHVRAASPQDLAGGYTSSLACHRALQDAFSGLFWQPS
Description: as §1
Inhibition activity of the respective compound on CDK kinase under Km value of ATP was tested in FRET based The LANCE® Ultra kinase assay (Perkin Elmer), which uses a ULight™-labeled peptide substrate and an appropriate Europium-labeled anti-phospho-antibody. […] After 1 min centrifugation at 1000 rpm, Purified CDKs/Cyclin complex were added following concentrations respectively. […] Data was analyzed using XL Fit software.

CDK5/p25 = biological target: T3, CDK5/p25 (Homo sapiens, UniProt Q00535); assay: Enzymatic assay for CDK5 (FRET based LANCE Ultra kinase assay); format: biochemical; settings: read-out: CDK5 enzymatic activity (IC50 range)
T3 construct: purchased Invitrogen PR8543B
T3 sequence (Q00535 whole entry): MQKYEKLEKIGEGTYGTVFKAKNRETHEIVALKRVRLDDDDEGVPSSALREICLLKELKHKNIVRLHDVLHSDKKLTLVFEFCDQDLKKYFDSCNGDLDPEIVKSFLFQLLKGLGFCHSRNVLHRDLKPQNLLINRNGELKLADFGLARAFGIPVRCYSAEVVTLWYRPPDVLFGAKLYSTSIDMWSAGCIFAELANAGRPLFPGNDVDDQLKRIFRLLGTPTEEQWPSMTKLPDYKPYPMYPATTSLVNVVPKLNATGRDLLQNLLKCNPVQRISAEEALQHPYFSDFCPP
T3 sequence (Q15078 99-307 partner limits assumed): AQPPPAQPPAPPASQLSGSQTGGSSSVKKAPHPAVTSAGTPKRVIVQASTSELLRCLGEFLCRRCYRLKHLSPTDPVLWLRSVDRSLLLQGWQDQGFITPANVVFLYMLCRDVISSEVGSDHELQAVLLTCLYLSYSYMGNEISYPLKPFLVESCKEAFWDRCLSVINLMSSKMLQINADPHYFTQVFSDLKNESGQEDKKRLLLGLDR
Description: as §1, §2

CDK2/Cyclin A = biological target: T4, CDK2/Cyclin A (Homo sapiens, UniProt P24941); assay: Enzymatic assay for CDK2 (FRET based LANCE Ultra kinase assay); format: biochemical; settings: read-out: CDK2 enzymatic activity (IC50 range)
T4 construct: purchased Invitrogen PV6290
Description: as §1, §2

H460 = assay: Cellular H460 viability assay (CellTiter-Glo, 72 hours); format: cell-based; settings: Homo sapiens, NCI-H460
Description: as §3, §4

HCT116 = assay: Cellular HCT116 viability assay (CellTiter-Glo, 72 hours); format: cell-based; settings: Homo sapiens, HCT-116
Description: as §3, §4

T1 sequence (P06493 whole entry): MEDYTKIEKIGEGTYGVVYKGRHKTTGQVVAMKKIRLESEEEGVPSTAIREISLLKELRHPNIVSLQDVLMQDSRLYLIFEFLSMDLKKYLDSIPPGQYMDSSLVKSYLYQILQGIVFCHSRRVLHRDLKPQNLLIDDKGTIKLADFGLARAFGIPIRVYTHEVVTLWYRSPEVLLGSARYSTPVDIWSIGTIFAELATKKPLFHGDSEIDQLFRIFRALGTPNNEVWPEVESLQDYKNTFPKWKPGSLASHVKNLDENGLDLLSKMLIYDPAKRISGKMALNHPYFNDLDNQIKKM
T1 sequence (P14635 whole entry partner): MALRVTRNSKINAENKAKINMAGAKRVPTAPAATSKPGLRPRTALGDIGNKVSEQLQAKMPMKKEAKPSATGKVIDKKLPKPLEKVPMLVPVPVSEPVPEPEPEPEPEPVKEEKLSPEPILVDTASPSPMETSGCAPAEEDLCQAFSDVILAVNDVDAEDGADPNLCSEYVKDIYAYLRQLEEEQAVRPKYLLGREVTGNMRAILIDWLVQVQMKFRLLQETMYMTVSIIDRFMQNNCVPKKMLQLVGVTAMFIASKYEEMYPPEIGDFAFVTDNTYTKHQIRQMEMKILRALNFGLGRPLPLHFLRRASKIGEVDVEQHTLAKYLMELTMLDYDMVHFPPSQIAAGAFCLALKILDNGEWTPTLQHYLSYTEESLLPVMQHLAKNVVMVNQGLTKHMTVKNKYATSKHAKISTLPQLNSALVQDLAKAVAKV

| IC50 (CDK1/Cyclin B) [nM] | IC50 (MV4-11) [nM] | IC50 (CDK7/Cyclin H/MNAT1) [nM] | IC50 (CDK5/p25) [nM] | IC50 (CDK2/Cyclin A) [nM] | IC50 (H460) [nM] | IC50 (HCT116) [nM] | SMILES | CDK1/CDK7: Selectivity of CDK7 inhibition over CDK1 inhibition (CDK7/Cyclin H/MNAT1) | CDK2/CDK7: Selectivity of CDK7 inhibition over CDK2 inhibition (CDK7/Cyclin H/MNAT1) | CDK5/CDK7: Selectivity of CDK7 inhibition over CDK5 inhibition (CDK7/Cyclin H/MNAT1) |
| --- | --- | --- | --- | --- | --- | --- | --- | --- | --- | --- |
| > 1000 | 1000 to 10000 | < 100 | > 1000 | > 1000 | 1000 to 10000 |  | Cc1ccc(-c2cc3ccccc3[nH]2)c(CNc2nc(N3CCC(N)CC3)nc3c(C(C)C)cnn23)c1 [Compound 190] | A (A=greater than 200 fold) | A (A=greater than 200 fold) | B (B=less than 200 fold, but greater than 20 fold) |
| 100 to 1000 | < 1000 | < 100 | 100 to 1000 | 100 to 1000 | < 1000 |  | Cc1ccc(CNc2nc(N3CCC(N)CC3)nc3c(C(C)C)cnn23)c(-c2cc3ccccc3[nH]2)c1 [Compound 191] | B (B=less than 200 fold, but greater than 20 fold) | B (B=less than 200 fold, but greater than 20 fold) | B (B=less than 200 fold, but greater than 20 fold) |

Continued, compound first:

| SMILES | IC50 (CDK1/Cyclin B) [nM] | IC50 (MV4-11) [nM] | IC50 (CDK7/Cyclin H/MNAT1) [nM] | IC50 (CDK5/p25) [nM] | IC50 (CDK2/Cyclin A) [nM] | IC50 (H460) [nM] | IC50 (HCT116) [nM] | CDK1/CDK7: Selectivity of CDK7 inhibition over CDK1 inhibition (CDK7/Cyclin H/MNAT1) | CDK2/CDK7: Selectivity of CDK7 inhibition over CDK2 inhibition (CDK7/Cyclin H/MNAT1) | CDK5/CDK7: Selectivity of CDK7 inhibition over CDK5 inhibition (CDK7/Cyclin H/MNAT1) |
| --- | --- | --- | --- | --- | --- | --- | --- | --- | --- | --- |
| CC(C)c1cnn2c(NCc3ccccc3-n3cccn3)nc(Nc3cccc(OC4CCNC4)c3)nc12 (racemic) [Compound 164] | > 1000 | 1000 to 10000 | < 100 | > 1000 | > 1000 |  |  | B (B=less than 200 fold, but greater than 20 fold) | B (B=less than 200 fold, but greater than 20 fold) | B (B=less than 200 fold, but greater than 20 fold) |
| CC(C)c1cnn2c(NCc3cccc4ccncc34)nc(N3CCC(N)CC3)nc12 [Compound 31] | 100 to 1000 |  | < 100 | < 100 | < 100 | < 1000 | < 1000 | B (B=less than 200 fold, but greater than 20 fold) | B (B=less than 200 fold, but greater than 20 fold) | C (C=less than 20 fold) |
| CC(C)c1cnn2c(NCc3ccccc3-n3cc4cc(NS(C)(=O)=O)ccc4n3)nc(N3CCC(N)CC3)nc12 [Compound 158] | 100 to 1000 | < 1000 | < 100 | < 100 | 100 to 1000 |  | < 1000 | B (B=less than 200 fold, but greater than 20 fold) | B (B=less than 200 fold, but greater than 20 fold) | B (B=less than 200 fold, but greater than 20 fold) |
| CC(C)c1cnn2c(NCc3ccccc3-n3cccn3)nc(-c3cccc(C4CCNCC4)c3)nc12 [Compound 165] | > 1000 | < 1000 | < 100 | 100 to 1000 | > 1000 | < 1000 |  | A (A=greater than 200 fold) | B (B=less than 200 fold, but greater than 20 fold) | B (B=less than 200 fold, but greater than 20 fold) |
| CC(C)c1cnn2c(NCc3ccccc3-n3cccn3)nc(-c3cccc(N4CCNCC4)c3)nc12 [Compound 167] | > 1000 | < 1000 | < 100 | 100 to 1000 | > 1000 | < 1000 |  | A (A=greater than 200 fold) | B (B=less than 200 fold, but greater than 20 fold) | B (B=less than 200 fold, but greater than 20 fold) |
